Measured values from patent publication US20050222013A1, “Methods for the use of inhibitors of histone deacetylase as synergistic agents in cancer therapy” (Georgetown University, priority 2003, published 2005).

Key:
Assay type in all cases: cell-based, human
[1] = tested on: SQ-20B cells; test: Cell cycle distribution by flow cytometry (G1 phase); conditions: for Duration of G1 arresting effect: about 24 hour exposure, TSA about 60 ng/ml, mimosine about 0.4 mM
Method: FIGS. 2A and 2B show cell cycle distributions of SQ20B cells after treatment with either TSA (FIG. 2A) or mock treatment (FIG. 2B) for 24 h. Cells were washed with fresh medium and exposed to about 10 Gy ionizing radiation. Cell nuclei were prepared for flow cytometric analysis using the procedure of Vindelov et al. (46). The samples were analyzed on a Becton-Dickinson FACStarplus instrument and the percentage of nuclei with G1, S, and G2/M DNA content was determined. […] The radiation sensitivity of cells is a function of the cell cycle. The lethal effect of radiation exposure is often observed only after subsequent cell division. Accordingly, the G1 phase is the more radiation sensitive phase. The compounds employed in the invention are observed to maintain cells in the G1 phase following radiation exposure. Comparing FIG. 2A to FIG. 2B, it can be seen that exposure of SQ-20B cells to TSA for about 24 hours prior to radiation results in an accumulation of more than about 70% of cells in the G1 phase and a maintenance of about 50% of cells for about 12 hours. After treatment with either TSA (panel A) or mock treatment (panel B) for about 24 h, cells were washed with fresh medium and exposed to about 10 Gy ionizing radiation. Cell nuclei were prepared for flow cytometric analysis. The samples were analyzed on a Becton-Dickinson FACStarplus® instrument and the percentage of nuclei with G1, S, and G2/M DNA content was determined. By comparison, irradiated mock-treated cells are not arrested.

[2] = tested on: SQ-20B cells; test: IC50 determination by clonogenic cell kill (24 hour drug treatment, colonies scored after 2 to 3 weeks); conditions: 24 hour treatment
Method: IC50 is defined as the concentration of the HDAC inhibitor that kills 50% of cells following treatment with the drug. To determine the IC50, a series of dilutions of drug is used over a broad range, for example 0-1.6 μg/ml. Approximately 100-400 cells are seeded into T-25 flasks in triplicate and treated with various concentrations of the drug. After a 24 hour treatment, the cells are washed with standard PBS (phosphate buffered saline) solution. Cells are then grown in fresh media for 2 to 3 weeks. Colonies are stained with crystal violet and scored. Concentrations of drugs showing 50% cell death represent the IC50 concentration.

[3] = tested on: SQ-20B cells; test: Clonogenic survival after ionizing radiation, fit to the single hit multitarget and linear quadratic models; parameters: α (linear quadratic model) / β (linear quadratic model) / Do (multitarget model radiosensitivity): unit not given here; conditions: for Do (multitarget model radiosensitivity) / α (linear quadratic model) / β (linear quadratic model): SQ-20B cells treated with drug at IC50, then gamma radiation
Method: Logarithmically growing SQ-20B cells were treated with TSA (about 60 ng/ml) for about 24 h and the medium was replaced with fresh medium. Cells were exposed to a graded dose of gamma radiation. A semi-logarithmic plot of the data for these cells is shown. Clonogenic survival numbers were determined and fit to the single hit multitarget and the linear quadratic models for analysis, measured by clonogenic survival analysis. Points and bars represent mean+/−SEM from triplicate flasks in each experiment.
The effectiveness of a particular treatment can be determined by measuring the radiation survival. Post treatment survival can be studied both in vitro and in vivo. For example, for in vitro determinations, exponentially growing cells can be exposed to known doses of radiation and the survival of the cells monitored. Irradiated cells are plated and cultured for about 14-about 21 days, and the colonies are stained. The surviving fraction is […]. Graphing the surviving fraction on a log scale versus the absorbed dose on a linear scale generates a survival curve. Survival curves generally show an exponential decrease in the fraction of surviving cells at higher radiation doses after an initial shoulder region in which the dose is sublethal. A similar protocol can be used for chemical agents.
Two mathematical models are commonly employed to analyze radiation survival data. A first model is the multi-target model. In this analysis, the reciprocal of the slope of the survival curve is defined as D0, the radiosensitivity of the cell population or tissue under investigation. D0 is the dose required to reduce the surviving fraction to about 37% in the exponential portion of the survival curve. The extrapolation of the linear portion of the curve to the y-intercept is denoted n. The width of the shoulder region is represented by drawing a line from the 100% survival point to the extrapolation line, this width is denoted Dq. Dq is the quasi-threshold dose, or the point at which the reduction in surviving fraction as a function of radiation dosage becomes exponential. The Dq value can also provide an estimate of an additional total dose required for each division of a single dose therapy into fractional doses. The additional dose is required to overcome the effect of sublethal damage repair that occurs when two sublethal doses are separated in time.
The linear quadratic model (surviving fraction=[…]) is used to fit radiation survival data to a continuously bending curve, where D is dose and α and β are constants. Alpha is the linear component, a measure of the initial slope that represents single-hit killing kinetics and dominates the radiation response at low doses. Beta is the quadratic component of cell killing, that represents multiple-hit killing and causes the curve to bend at higher doses. The alpha:beta ratio is the dose at which the linear and quadratic components of cell killing are equal. The more linear the response to killing of cells at low radiation dose, the higher is the value of alpha, and the greater is the radiosensitivity of the cells.
A semi-logarithmic plot of the mean+/−SEM from triplicate flasks in each experiment for these cells is shown. Logarithmically growing SQ-20B cells were treated with TSA (about 60 ng/ml) for about 24 h and the medium was replaced with fresh medium. Cells were exposed to a graded dose of gamma radiation. Clonogenic survivals were determined and fit to the single hit multitarget and the linear quadratic models for analysis.

[4] = tested on: SQ-20B cells; test: Apoptotic index
Method: SQ-20B cells were exposed to about 10 Gy of irradiation. Time zero refers to cells that were subjected to sham irradiation. At the indicated times thereafter, attached and floating cells were collected and the number of apoptotic cells was determined as a percentage of the total number of cells (apoptotic index). Data shown represent mean values±SD from three independent experiments.
HDAC inhibitors are known to promote cancer cell death through apoptosis in vitro and in vivo. This has been a basis for the use of HDAC inhibitors at high concentrations as a single agent in chemical therapy. However, we have determined that the amount effective to synergize radiation-induced cell death is substantially less than the amount required to promote apoptosis. […] Concentrations that produce these effects can be determined for any HDAC inhibitory compound by one of skill in the art by observation of markers of apoptosis such as, for example, the apoptotic index and caspase activities.
Treatment with TSA (about 60 ng/ml) or mock treatment was followed by radiation (about 10 Gy). At about 24, about 48, and about 72 hours, attached and floating cells were collected and the number of apoptotic cells was determined as a percentage of the total number of cells (apoptotic index).

Compound: NC(Cn1ccc(=O)c(O)c1)C(=O)O (stereo not shown) [mimosine]
- Duration of G1 arresting effect [1]: about 4 hours

Compound: C/C=C1\NC(=O)[C@H]2CSSCC/C=C/[C@H](CC(=O)N[C@H](C(C)C)C(=O)N2)OC(=O)[C@H](C(C)C)NC1=O [FR, depsipsptide (FR 901228)]
- IC50 (concentration that kills 50% of cells) [2]: 0.005 µg/mL
- Do (multitarget model radiosensitivity) [3]: 1.65
- α (linear quadratic model) [3]: 0.104
- β (linear quadratic model) [3]: 0.033

Compound: CN(C)c1ccc(C(=O)NCCCCCCC(=O)NO)cc1 [M344]
- IC50 (concentration that kills 50% of cells) [2]: 0.32 µg/mL
- Do (multitarget model radiosensitivity) [3]: 1.65
- α (linear quadratic model) [3]: 0.077
- β (linear quadratic model) [3]: 0.033

Compound: CN(C)c1ccc(C(=O)NCCCCCC(=O)NO)cc1 [MD85]
- IC50 (concentration that kills 50% of cells) [2]: 0.1 µg/mL
- Do (multitarget model radiosensitivity) [3]: 2.49
- α (linear quadratic model) [3]: 0.024
- β (linear quadratic model) [3]: 0.022

Compound: CC(/C=C/C(=O)NO)=C\[C@@H](C)C(=O)c1ccc(N(C)C)cc1 [TSA, trichostatin A]
- IC50 (concentration that kills 50% of cells) [2]: about 60 ng/ml
- Do (multitarget model radiosensitivity) [3]: 1.64
- α (linear quadratic model) [3]: 0.126
- β (linear quadratic model) [3]: 0.030
- Sensitization to ionizing radiation ([3]; head and neck tumor cells, at about the IC50 concentration): significantly sensitized head and neck tumor cells to ionizing radiation
- Duration of G1 arresting effect [1]: about 12 hours
- Cells accumulated in the G1 phase ([1]; exposure for about 24 hours prior to radiation (about 10 Gy)): more than 70%
- Cells maintained in the G1 phase ([1]; maintained for about 12 hours after about 10 Gy): about 50%
- Apoptotic index, treated versus mock treated ([4]; about 60 ng/ml followed by about 10 Gy, about 24, 48, 72 hours): the number of treated and untreated apoptotic cells were similar
- Promotion of apoptosis ([4]; at about 3 to about 7 times the IC50): does promote apoptosis
- Promotion of apoptosis ([4]; at concentrations of about 200-about 400 ng/ml): did promote significant apoptosis
- Promotion of apoptosis ([4]; at the IC50 concentration of about 60 ng/ml): did not promote significant apoptosis

Compound: O=C(CCCCCCC(=O)Nc1ccccc1)NO [SAHA, suberonylanilide hydroxamic acid]
- Do (multitarget model radiosensitivity) [3]: 1.88
- α (linear quadratic model) [3]: 0.011
- β (linear quadratic model) [3]: 0.031
